Measurements: the NIST ThermoML archive (doi:10.1021/je101180r)
Numbers after ± are expanded uncertainties.

Settings: Liquid, Ebulliometric method (Recirculating still)

Row | SMILES | vapor or sublimation pressure (402.57 K) | vapor or sublimation pressure (413.74 K) | vapor or sublimation pressure (373.7 K) | vapor or sublimation pressure (384.96 K)
1 | Cc1cccnc1N [2-amino-3-methylpyridine] | 5.158 ± 0.11 kPa | 8.041 ± 0.18 kPa |  | 
2 | CN(C)c1ccccc1 [N,N-dimethylaniline] |  |  | 5.158 ± 0.11 kPa | 8.041 ± 0.18 kPa
